For one assay, the system named is SH-SY5Y M-currents (KCNQ2, KCNQ3 and KCNQ5). In words: SH-SY5Y native cell line FLIPR assay (voltage-sensitive dye DiBAC). The class given is cell-based, mouse neuroblastoma, rat glioma hybrid cell line. The following applies: FLIPR assay, SH-SY5Y native cell line; Table 2; read-out: SH-SY5Y EC50. In short, it runs like this: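 Response is peak DiBAC fluorescence change, normalised to the maximum from a positive control agent, sampled every 30 s over 25 min. Before compound addition, SH-SY5Y cells differentiated with PGE1 plus isomethylbutylxanthine were dye-loaded for 1 h in EBSS with […] DiBAC.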
With `CC(C)(C)CC(=O)Nc1nc2ncccn2c1-c1cccc(OC(F)(F)F)c1` [Compound 323, 3,3-dimethyl-N-(3-(3-(trifluoromethoxy)phenyl)imidazo[1,2-a]pyrimidin-2-yl)butanamide], the EC50 – broadly, the midpoint of the concentration-response curve – was 3 to 10 µM. `O=C(Cc1ccc(F)cc1)Nc1nc2ncccn2c1-c1cccc(OC(F)(F)F)c1` [Compound 324, 2-(4-fluorophenyl)-N-(3-(3-(trifluoromethoxy)phenyl)imidazo[1,2-a]pyrimidin-2-yl)acetamide]: the EC50 lay within 3 to 10 µM.

Regarding `CC(CC(=O)Nc1nc2ncccn2c1-c1cccc(OC(F)(F)F)c1)C(F)(F)F` (centres unmarked) [Compound 325, 4,4,4-trifluoro-3-methyl-N-(3-(3-(trifluoromethoxy)phenyl)imidazo[1,2-a]pyrimidin-2-yl)butanamide], the concentration giving a half-maximal response (EC50) lay in the range of 3 to 10 µM. Consider `O=C(Nc1nc2ccc(F)cn2c1-c1ccc(OC(F)(F)F)cc1)C1CCC(F)(F)CC1` [Compound 326, 4,4-difluoro-N-(6-fluoro-3-(4-(trifluoromethoxy)phenyl)imidazo[1,2-a]pyridin-2-yl)cyclohexanecarboxamide], for which the EC50 is less than 0.5 µM.

Take `O=C(Nc1nc2ccc(F)cn2c1-c1cccc(OC(F)(F)F)c1)C1CCC(F)(F)CC1` [Compound 327, 4,4-difluoro-N-(6-fluoro-3-(3-(trifluoromethoxy)phenyl)imidazo[1,2-a]pyridin-2-yl)cyclohexanecarboxamide]: the EC50 was less than 0.5 µM. The same measure, in the same setting: in the case of `O=C(Nc1nc2ccc(F)cn2c1-c1cccc(C(F)(F)F)c1)C1CCC(F)(F)CC1` [Compound 328, 4,4-difluoro-N-(6-fluoro-3-(3-(trifluoromethyl)phenyl)imidazo[1,2-a]pyridin-2-yl)cyclohexanecarboxamide] it was less than 0.5 µM; in that of `CC(C)(C)CC(=O)Nc1nc2ncccn2c1-c1cccc(Cl)c1` [Compound 329, N-(3-(3-chlorophenyl)imidazo[1,2-a]pyrimidin-2-yl)-3,3-dimethylbutanamide], 3 to 10 µM. In the case of `O=C(Cc1ccc(F)cc1)Nc1nc2ncccn2c1-c1cccc(Cl)c1` [Compound 330, N-(3-(3-chlorophenyl)imidazo[1,2-a]pyrimidin-2-yl)-2-(4-fluorophenyl)acetamide], the EC50 fell in the range of 3 to 10 µM. With `CC(CC(=O)Nc1nc2ncccn2c1-c1cccc(Cl)c1)C(F)(F)F` (centres unmarked) [Compound 331, N-(3-(3-chlorophenyl)imidazo[1,2-a]pyrimidin-2-yl)-4,4,4-trifluoro-3-methylbutanamide], the concentration giving a half-maximal response (EC50) was in the range of 3 to 10 µM.

`CC(C)(C)CC(=O)Nc1nc2ncc(F)cn2c1-c1cccc(C(F)(F)F)c1` [Compound 332, N-(6-fluoro-3-(3-(trifluoromethyl)phenyl)imidazo[1,2-a]pyrimidin-2-yl)-3,3-dimethylbutanamide]: the EC50 is 3 to 10 µM.

Turning to `CC(C)(C)CC(=O)Nc1nc2ncc(F)cn2c1-c1cccc(OC(F)(F)F)c1` [Compound 333, N-(6-fluoro-3-(3-(trifluoromethoxy)phenyl)imidazo[1,2-a]pyrimidin-2-yl)-3,3-dimethylbutanamide], the EC50 lay in the range of 0.5 to 3 µM. The same measure, in the same setting: in the case of `O=C(Nc1nc2ccc(F)cn2c1-c1ccc(OC(F)(F)F)c(F)c1)C1CCC1` [Compound 334, N-(6-fluoro-3-(3-fluoro-4-(trifluoromethoxy)phenyl)imidazo[1,2-a]pyridin-2-yl)cyclobutanecarboxamide] it was 0.5 to 3 µM; in that of `O=C(Nc1nc2ccc(F)cn2c1-c1cccc(Cl)c1)C1CCC1` [Compound 335, N-(3-(3-chlorophenyl)-6-fluoroimidazo[1,2-a]pyridin-2-yl)cyclobutanecarboxamide], 0.5 to 3 µM; in that of `CC(C)(C)CC(=O)Nc1nc2ccccn2c1-c1cccc(C(F)(F)F)c1` [Compound 336, 3,3-dimethyl-N-(3-(3-(trifluoromethyl)phenyl)imidazo[1,2-a]pyridin-2-yl)butanamide], 0.5 to 3 µM. Take `CC(CC(=O)Nc1nc2ccccn2c1-c1cccc(C(F)(F)F)c1)C(F)(F)F` (centres unmarked) [Compound 337, 4,4,4-trifluoro-3-methyl-N-(3-(3-(trifluoromethyl)phenyl)imidazo[1,2-a]pyridin-2-yl)butanamide]: the EC50 lay in the range of 0.5 to 3 µM. The same measure, in the same setting: the result for `O=C(Cc1ccc(F)cc1)Nc1nc2ccccn2c1-c1cccc(C(F)(F)F)c1` [Compound 338, 2-(4-fluorophenyl)-N-(3-(3-(trifluoromethyl)phenyl)imidazo[1,2-a]pyridin-2-yl)acetamide] reads 0.5 to 3 µM; that for `COc1ccc2nc(NC(=O)CC(C)(C)C)c(-c3cccc(C(F)(F)F)c3)n2n1` [Compound 339, N-(6-methoxy-3-(3-(trifluoromethyl)phenyl)imidazo[1,2-b]pyridazin-2-yl)-3,3-dimethylbutanamide], 0.5 to 3 µM; that for `CC(=O)O[C@H](C(=O)Nc1nc2ccc(F)cn2c1-c1ccc(C(F)(F)F)cc1)C(C)(C)C` [Compound 340, (S)-1-(6-fluoro-3-(4-(trifluoromethyl)phenyl)imidazo[1,2-a]pyridin-2-ylamino)-3,3-dimethyl-1-oxobutan-2-yl acetate], 3 to 10 µM. On the same count and under the same terms, in the case of `CC(C)(C)[C@H](O)C(=O)Nc1nc2ccc(F)cn2c1-c1ccc(C(F)(F)F)cc1` [Compound 341, (S)—N-(6-fluoro-3-(4-(trifluoromethyl)phenyl)imidazo[1,2-a]pyridin-2-yl)-2-hydroxy-3,3-dimethylbutanamide] it was 0.5 to 3 µM. The same measure, in the same setting: in the case of `CC(C)(C)CC(=O)Nc1nc2ccccn2c1-c1cccc(OC(F)(F)F)c1` [Compound 342, 3,3-dimethyl-N-(3-(3-(trifluoromethoxy)phenyl)imidazo[1,2-a]pyridin-2-yl)butanamide] it was less than 0.5 µM; in that of `CC(CC(=O)Nc1nc2ccccn2c1-c1cccc(OC(F)(F)F)c1)C(F)(F)F` (centres unmarked) [Compound 343, 4,4,4-trifluoro-3-methyl-N-(3-(3-(trifluoromethoxy)phenyl)imidazo[1,2-a]pyridin-2-yl)butanamide], 0.5 to 3 µM; in that of `O=C(Cc1ccc(F)cc1)Nc1nc2ccccn2c1-c1cccc(OC(F)(F)F)c1` [Compound 344, 2-(4-fluorophenyl)-N-(3-(3-(trifluoromethoxy)phenyl)imidazo[1,2-a]pyridin-2-yl)acetamide], less than 0.5 µM. For `O=C(Nc1nc2ccc(F)cn2c1-c1ccc(C(F)(F)F)cc1)N1CCC(F)(F)CC1` [Compound 345, 4,4-difluoro-N-(6-fluoro-3-(4-(trifluoromethyl)phenyl)imidazo[1,2-a]pyridin-2-yl)piperidine-1-carboxamide], the EC50 lay within 0.5 to 3 µM. Turning to `COc1ccc2nc(NC(=O)CC(C)(C)C)c(-c3cccc(OC(F)(F)F)c3)n2n1` [Compound 346, N-(6-methoxy-3-(3-(trifluoromethoxy)phenyl)imidazo[1,2-b]pyridazin-2-yl)-3,3-dimethylbutanamide], the EC50 was less than 0.5 µM.

Staying with this assay, now noted: SH-SY5Y native cell line, FLIPR assay (Table 3); read-out: SH-SY5Y EC50.
As for `CC(C)(C)CC(=O)Nc1nc2ccc(F)cn2c1-c1ccccn1` [Compound 347, N-(6-fluoro-3-(pyridin-2-yl)imidazo[1,2-a]pyridin-2-yl)-3,3-dimethylbutanamide], the EC50 lay in the range of 3 to 10 µM. Still for that read-out and setting: in the case of `CC(C)(C)CC(=O)Nc1nc2ccc(F)cn2c1-c1cccnc1` [Compound 348, N-(6-fluoro-3-(pyridin-3-yl)imidazo[1,2-a]pyridin-2-yl)-3,3-dimethylbutanamide] it was 3 to 10 µM.

`CC(C)(C)CC(=O)Nc1nc2ccc(F)cn2c1-c1ccc(F)nc1` [Compound 349, N-(6-fluoro-3-(6-fluoropyridin-3-yl)imidazo[1,2-a]pyridin-2-yl)-3,3-dimethylbutanamide]: the EC50 is 0.5 to 3 µM.

In the case of `CC(C)(C)CC(=O)Nc1nc2ccc(F)cn2c1-c1ccc(C#N)nc1` [Compound 350, N-(3-(6-cyanopyridin-3-yl)-6-fluoroimidazo[1,2-a]pyridin-2-yl)-3,3-dimethylbutanamide], the EC50 lay in the range of 0.5 to 3 µM. On the same count and under the same terms, the result for `CC(C)(C)CC(=O)Nc1nc2ccc(F)cn2c1-c1ccncc1` [Compound 351, N-(6-fluoro-3-(pyridin-4-yl)imidazo[1,2-a]pyridin-2-yl)-3,3-dimethylbutanamide] reads 3 to 10 µM; that for `CC(C)(C)CC(=O)Nc1nc2ccc(F)cn2c1-c1ccc(F)cn1` [Compound 352, N-(6-fluoro-3-(5-fluoropyridin-2-yl)imidazo[1,2-a]pyridin-2-yl)-3,3-dimethylbutanamide], 0.5 to 3 µM. For the molecule `CC(C)(C)CC(=O)Nc1nc2ccc(F)cn2c1-c1ccc(C#N)cn1` [Compound 354, N-(3-(5-cyanopyridin-2-yl)-6-fluoroimidazo[1,2-a]pyridin-2-yl)-3,3-dimethylbutanamide], the EC50 is 3 to 10 µM. For `CC(C)(C)CC(=O)Nc1nc2ccc(F)cn2c1-c1cncc(C(F)(F)F)c1` [Compound 355, N-(6-fluoro-3-(5-(trifluoromethyl)pyridin-3-yl)imidazo[1,2-a]pyridin-2-yl)-3,3-dimethylbutanamide], the EC50 lay within 3 to 10 µM. Take `Cc1ccc(-c2c(N(C(=O)CC(C)(C)C)C(=O)CC(C)(C)C)nc3ccc(F)cn23)nc1` [Compound 356, N-(3,3-dimethylbutanoyl)-N-(6-fluoro-3-(5-methylpyridin-2-yl)imidazo[1,2-a]pyridin-2-yl)-3,3-dimethylbutanamide]: the EC50 was 3 to 10 µM. As to `CC(C)(C)CC(=O)N(C(=O)CC(C)(C)C)c1nc2ccc(F)cn2c1-c1cccc(C(F)(F)F)n1` [Compound 357, N-(3,3-dimethylbutanoyl)-N-(6-fluoro-3-(6-(trifluoromethyl)pyridin-2-yl)imidazo[1,2-a]pyridin-2-yl)-3,3-dimethylbutanamide], the EC50 was in the range of 3 to 10 µM. Same read-out and setting: in the case of `CC(C)(C)CC(=O)N(C(=O)CC(C)(C)C)c1nc2ccc(F)cn2c1-c1nc2ccccc2s1` [Compound 358, N-(3-(benzo[d]thiazol-2-yl)-6-fluoroimidazo[1,2-a]pyridin-2-yl)-N-(3,3-dimethylbutanoyl)-3,3-dimethylbutanamide] it was 3 to 10 µM.

The values above are taken from patent US9018208B2, “Heterocycles as potassium channel modulators” (Icagen Inc., priority 2007, dated 2015).
